Reference: patent US20210387954A1, “OXADIAZOLES AS FUNGICIDES” (PI INDUSTRIES LIMITED, priority 2018, published 2021)

system: Colletotrichum capsici; test: Colletotrichum capsici (anthracnose) in vitro radial growth test on Potato Dextrose Agar; type: cell-based; conditions: 300 ppm; radial growth after seven days at 25° C., 60% relative humidity

Question: With O=C(Cc1ccccc1)Nc1ccc(Cc2noc(C(F)(F)F)n2)cc1 [Compound 6, 2-phenyl-N-(4-((5-(trifluoromethyl)-1,2,4-oxadiazol-3-yl)methyl)phenyl)acetamide] as the compound, how does the “control compared to the untreated check” value read?
Answer: Its value is > 70%.

system: Phakopsora pachyrhizi; test: Phakopsora pachyrhizi test in soybean (greenhouse, preventive); type: in vivo; conditions: 24 h, soybean plants sprayed one day before inoculation, read-out: control compared to the untreated check (efficacy from disease severity rating)
Protocol: Compounds were dissolved in 2% DMSO/Acetone and then diluted with water containing emulsifier to the desired test concentration. To test the preventive activity of compounds, healthy young soybean plants, raised in the greenhouse, were sprayed with the active compound solution at the stated application rates inside spray cabinets using hallowcone nozzles. One day after treatment, the plants were inoculated with a suspension containing 2.1×10^6 Phakopsora pachyrhizi spores. The inoculated plants were then kept in the greenhouse chamber at 25° C. temperature and 90% relative humidity for disease expression. A visual assessment of the compound's performance was carried out by rating the disease severity (0-100% scale) on treated plants on 3, 7, 10 and 15 days after application. Efficacy (% control) of the compounds was calculated by comparing the disease rating in the treatment with the one of the untreated control. The treated plants were also assessed for plant compatibility by recording symptoms like necrosis, chlorosis and stunting.

Question: O=C(c1ccc(Cc2noc(C(F)(F)F)n2)cc1)N1CCOCC1 [Compound 13, morpholino(4-((5-(trifluoromethyl)-1,2,4-oxadiazol-3-yl)methyl)phenyl)methanone] was tested. Which pest or weed control at 500 ppm did it give?
Answer: The pest or weed control at 500 ppm was > 70%.

Question: With O=C(Nc1ccc(Cc2noc(C(F)(F)F)n2)cc1)c1cccnc1 [Compound 4, N-(4-((5-(trifluoromethyl)-1,2,4-oxadiazol-3-yl)methyl)phenyl)nicotinamide] as the compound, how does the pest or weed control at 500 ppm read?
Answer: The pest or weed control at 500 ppm was > 70%.

Question: Which pest or weed control at 500 ppm does the source give for O=C(Nc1ccc(Cc2noc(C(F)(F)F)n2)cc1)c1ccncc1 [Compound 5, N-(4-((5-(trifluoromethyl)-1,2,4-oxadiazol-3-yl)methyl)phenyl)isonicotinamide] here?
Answer: Its pest or weed control at 500 ppm is > 70%.

Question: Which pest or weed control at 500 ppm does the source give for COCCNC(=O)c1ccc(Cc2noc(C(F)(F)F)n2)cc1 [Compound 42, N-(2-methoxyethyl)-4-((5-(trifluoromethyl)-1,2,4-oxadiazol-3-yl)methyl)benzamide] here?
Answer: Its pest or weed control at 500 ppm is > 70%.

Question: For CC(C)(C)OC(=O)Nc1ccc(C(F)(F)c2noc(C(F)(F)F)n2)cc1 [Compound 30, tert-butyl (4-(difluoro(5-(trifluoromethyl)-1,2,4-oxadiazol-3-yl)methyl)phenyl)carbamate], which pest or weed control at 500 ppm is on record?
Answer: The pest or weed control at 500 ppm was > 70%.

Question: Which pest or weed control at 500 ppm does the source give for CNC(=O)c1ccc(Cc2noc(C(F)(F)F)n2)cc1 [Compound 40, N-methyl-4-((5-(trifluoromethyl)-1,2,4-oxadiazol-3-yl)methyl)benzamide] here?
Answer: The pest or weed control at 500 ppm was > 70%.

Question: Which pest or weed control at 500 ppm does the source give for O=C(Nc1ccc(Cc2noc(C(F)(F)F)n2)cc1)c1ccccn1 [Compound 3, N-(4-((5-(trifluoromethyl)-1,2,4-oxadiazol-3-yl)methyl)phenyl)picolinamide] here?
Answer: Its pest or weed control at 500 ppm is > 70%.

Question: With O=C(Nc1ccc(Cc2noc(C(F)(F)F)n2)cc1)c1ccc(Cl)cc1 [Compound 10, 4-chloro-N-(4-((5-(trifluoromethyl)-1,2,4-oxadiazol-3-yl)methyl)phenyl)benzamide] as the compound, how does the pest or weed control at 500 ppm read?
Answer: Its pest or weed control at 500 ppm is > 70%.

Question: For O=C(NCC1CC1)c1ccc(Cc2noc(C(F)(F)F)n2)cc1 [Compound 47, N-(cyclopropylmethyl)-4-((5-(trifluoromethyl)-1,2,4-oxadiazol-3-yl)methyl)benzamide], which pest or weed control at 500 ppm is on record?
Answer: The pest or weed control at 500 ppm was > 70%.

Question: Which pest or weed control at 500 ppm does the source give for COc1ccc(Cl)c(NC(=O)c2ccc(Cc3noc(C(F)(F)F)n3)cc2)c1 [Compound 18, N-(2-chloro-5-methoxyphenyl)-4-((5-(trifluoromethyl)-1,2,4-oxadiazol-3-yl)methyl)benzamide] here?
Answer: Its pest or weed control at 500 ppm is > 70%.

Question: Fc1ccc(NC(=S)c2ccc(Cc3noc(C(F)(F)F)n3)cc2)cc1 [Compound 67, N-(4-fluorophenyl)-4-((5-(trifluoromethyl)-1,2,4-oxadiazol-3-yl)methyl)benzothioamide] was tested. Which pest or weed control at 500 ppm did it give?
Answer: Its pest or weed control at 500 ppm is > 70%.

Question: How did the pest or weed control at 500 ppm turn out when O=C(Nc1ccc(Cc2noc(C(F)(F)F)n2)cc1)c1ccc(C(F)(F)F)cc1 [Compound 8, 4-(trifluoromethyl)-N-(4-((5-(trifluoromethyl)-1,2,4-oxadiazol-3-yl)methyl)phenyl)benzamide] was run?
Answer: The pest or weed control at 500 ppm was > 70%.

Question: For O=C(Cc1ccccc1)Nc1ccc(Cc2noc(C(F)(F)F)n2)cc1 [Compound 6, 2-phenyl-N-(4-((5-(trifluoromethyl)-1,2,4-oxadiazol-3-yl)methyl)phenyl)acetamide], which pest or weed control at 500 ppm is on record?
Answer: Its pest or weed control at 500 ppm is > 70%.

Question: CC(C)(C)OC(=O)Nc1ccc(C(=O)c2noc(C(F)(F)F)n2)cc1 [Compound 29, tert-butyl (4-(5-(trifluoromethyl)-1,2,4-oxadiazole-3-carbonyl)phenyl)carbamate] was tested. Which pest or weed control at 500 ppm did it give?
Answer: The pest or weed control at 500 ppm was > 70%.

Question: For O=C(c1ccc(Cc2noc(C(F)(F)F)n2)cc1)N1CCCC1 [Compound 45, pyrrolidin-1-yl(4-((5-(trifluoromethyl)-1,2,4-oxadiazol-3-yl)methyl)phenyl)methanone], which pest or weed control at 500 ppm is on record?
Answer: The pest or weed control at 500 ppm was > 70%.

Question: For COCCN(C)C(=O)c1ccc(Cc2noc(C(F)(F)F)n2)cc1 [Compound 46, N-(2-methoxyethyl)-N-methyl-4-((5-(trifluoromethyl)-1,2,4-oxadiazol-3-yl)methyl)benzamide], which pest or weed control at 500 ppm is on record?
Answer: The pest or weed control at 500 ppm was > 70%.

Question: How did the pest or weed control at 500 ppm turn out when C#CCNC(=O)c1ccc(Cc2noc(C(F)(F)F)n2)cc1 [Compound 50, N-(prop-2-yn-1-yl)-4-((5-(trifluoromethyl)-1,2,4-oxadiazol-3-yl)methyl)benzamide] was run?
Answer: Its pest or weed control at 500 ppm is > 70%.

Question: How did the pest or weed control at 500 ppm turn out when O=S(=O)(Nc1ccc(Cc2noc(C(F)(F)F)n2)cc1)c1ccccc1 [Compound 68, N-(4-((5-(trifluoromethyl)-1,2,4-oxadiazol-3-yl)methyl)phenyl)benzenesulfonamide] was run?
Answer: Its pest or weed control at 500 ppm is > 70%.

Question: How did the pest or weed control at 500 ppm turn out when Cc1ccc(C(=O)Nc2ccc(C(F)(F)c3noc(C(F)(F)F)n3)cc2)cc1 [Compound 38, N-(4-(difluoro(5-(trifluoromethyl)-1,2,4-oxadiazol-3-yl)methyl)phenyl)-4-methylbenzamide] was run?
Answer: Its pest or weed control at 500 ppm is > 70%.

Question: With O=C(Nc1ccc(C(=O)c2noc(C(F)(F)F)n2)cc1)c1ccncc1 [Compound 27, N-(4-(5-(trifluoromethyl)-1,2,4-oxadiazole-3-carbonyl)phenyl)isonicotinamide] as the compound, how does the pest or weed control at 500 ppm read?
Answer: The pest or weed control at 500 ppm was > 70%.

Question: For O=C(NCc1ccc(F)cc1)c1ccc(Cc2noc(C(F)(F)F)n2)cc1 [Compound 12, N-(4-fluorobenzyl)-4-((5-(trifluoromethyl)-1,2,4-oxadiazol-3-yl)methyl)benzamide], which pest or weed control at 500 ppm is on record?
Answer: The pest or weed control at 500 ppm was > 70%.

Question: For O=C(Nc1ccc(Cc2noc(C(F)(F)F)n2)cc1)c1ccccc1 [Compound 2, N-(4-((5-(trifluoromethyl)-1,2,4-oxadiazol-3-yl)methyl)phenyl)benzamide], which pest or weed control at 500 ppm is on record?
Answer: Its pest or weed control at 500 ppm is > 70%.

Question: C=CCN(C)C(=O)c1ccc(Cc2noc(C(F)(F)F)n2)cc1 [Compound 49, N-allyl-N-methyl-4-((5-(trifluoromethyl)-1,2,4-oxadiazol-3-yl)methyl)benzamide] was tested. Which pest or weed control at 500 ppm did it give?
Answer: The pest or weed control at 500 ppm was > 70%.

Question: For CCN(C)C(=O)c1ccc(Cc2noc(C(F)(F)F)n2)cc1 [Compound 48, N-ethyl-N-methyl-4-((5-(trifluoromethyl)-1,2,4-oxadiazol-3-yl)methyl)benzamide], which pest or weed control at 500 ppm is on record?
Answer: The pest or weed control at 500 ppm was > 70%.

Question: Which pest or weed control at 500 ppm does the source give for O=C(Nc1ccc(Cc2noc(C(F)(F)F)n2)cc1)c1ccc(F)cc1 [Compound 9, 4-fluoro-N-(4-((5-(trifluoromethyl)-1,2,4-oxadiazol-3-yl)methyl)phenyl)benzamide] here?
Answer: Its pest or weed control at 500 ppm is > 70%.

system: Corynespora cassicola; test: Corynespora cassicola (leaf spot of tomato) in vitro radial growth test on Potato Dextrose Agar; type: cell-based; conditions: 300 ppm; radial growth after seven days at 25° C., 70% relative humidity

Question: Which “control compared to the untreated check” value does the source give for O=S(=O)(Nc1ccc(Cc2noc(C(F)(F)F)n2)cc1)c1ccccc1 [Compound 68, N-(4-((5-(trifluoromethyl)-1,2,4-oxadiazol-3-yl)methyl)phenyl)benzenesulfonamide] here?
Answer: The value was > 70%.

system: Alternaria solani; test: Alternaria solani (early blight of tomato/potato) in vitro radial growth test on Potato Dextrose Agar; type: cell-based; conditions: 168 h, radial growth after seven days at 25° C., 60% relative humidity, read-out: control compared to the untreated check

Question: COc1ccccc1NC(=O)c1ccc(Cc2noc(C(F)(F)F)n2)cc1 [Compound 19, N-(2-methoxyphenyl)-4-((5-(trifluoromethyl)-1,2,4-oxadiazol-3-yl)methyl)benzamide] was tested. Which inhibition of growth at 300 ppm did it give?
Answer: The inhibition of growth at 300 ppm was > 70%.

Question: With O=C(Nc1cccc(Cl)c1)c1ccc(Cc2noc(C(F)(F)F)n2)cc1 [Compound 55, N-(3-chlorophenyl)-4-((5-(trifluoromethyl)-1,2,4-oxadiazol-3-yl)methyl)benzamide] as the compound, how does the inhibition of growth at 300 ppm read?
Answer: The inhibition of growth at 300 ppm was > 70%.

Question: With O=C(Cc1ccccc1)Nc1ccc(Cc2noc(C(F)(F)F)n2)cc1 [Compound 6, 2-phenyl-N-(4-((5-(trifluoromethyl)-1,2,4-oxadiazol-3-yl)methyl)phenyl)acetamide] as the compound, how does the inhibition of growth at 300 ppm read?
Answer: Its inhibition of growth at 300 ppm is > 70%.

Question: For O=C(NCc1cccnc1)c1ccc(Cc2noc(C(F)(F)F)n2)cc1 [Compound 16, N-(pyridin-3-ylmethyl)-4-((5-(trifluoromethyl)-1,2,4-oxadiazol-3-yl)methyl)benzamide], which inhibition of growth at 300 ppm is on record?
Answer: Its inhibition of growth at 300 ppm is > 70%.

Question: How did the inhibition of growth at 300 ppm turn out when Cc1ccc(C(C)NC(=O)c2ccc(Cc3noc(C(F)(F)F)n3)cc2)cc1 (stereo not drawn) [Compound 15, N-(1-(p-tolyl)ethyl)-4-((5-(trifluoromethyl)-1,2,4-oxadiazol-3-yl)methyl)benzamide] was run?
Answer: The inhibition of growth at 300 ppm was > 70%.

Question: With O=C(Nc1cncc(Cl)c1)c1ccc(Cc2noc(C(F)(F)F)n2)cc1 [Compound 17, N-(5-chloropyridin-3-yl)-4-((5-(trifluoromethyl)-1,2,4-oxadiazol-3-yl)methyl)benzamide] as the compound, how does the inhibition of growth at 300 ppm read?
Answer: The inhibition of growth at 300 ppm was > 70%.

Question: Cc1cccc(NC(=S)c2ccc(Cc3noc(C(F)(F)F)n3)cc2)c1 [Compound 64, N-(m-tolyl)-4-((5-(trifluoromethyl)-1,2,4-oxadiazol-3-yl)methyl)benzothioamide] was tested. Which inhibition of growth at 300 ppm did it give?
Answer: Its inhibition of growth at 300 ppm is > 70%.

Question: For O=C(NCc1ccc(F)cc1)c1ccc(Cc2noc(C(F)(F)F)n2)cc1 [Compound 12, N-(4-fluorobenzyl)-4-((5-(trifluoromethyl)-1,2,4-oxadiazol-3-yl)methyl)benzamide], which inhibition of growth at 300 ppm is on record?
Answer: The inhibition of growth at 300 ppm was > 70%.

Question: With O=C(NCCN1CCOCC1)c1ccc(Cc2noc(C(F)(F)F)n2)cc1 [Compound 21, N-(2-morpholinoethyl)-4-((5-(trifluoromethyl)-1,2,4-oxadiazol-3-yl)methyl)benzamide] as the compound, how does the inhibition of growth at 300 ppm read?
Answer: Its inhibition of growth at 300 ppm is > 70%.
